In ChEMBL document CHEMBL1221197, “Selective inhibitors of death in mutant huntingtin cells” (Nat Chem Biol, 2007):
The source made the active and inactive calls. The rule behind the calls is not given here.

Columns and labels:
[1] = Inhibition of human huntingtin N548 mutant expressed in rat ST14A cells assessed as decrease in cell death; assay type: cell-based
[2] = Cytotoxicity against rat ST14A cells transfected with human htt gene; assay type: cell-based; conditions: read-out: TC50 (the source's name)
[3] = Inhibition of human huntingtin Q103 mutant expressed in rat PC12 cells assessed as decrease in cell death; assay type: cell-based, PC-12
Saccharomyces cerevisiae = assay: Inhibition of huntingtin in Saccharomyces cerevisiae coexpressing exon 1 fragments with polyQ region Huntington disease (HD) model assessed as increase in cell viability
neuronal = assay: Inhibition of huntingtin mutant in Caenorhabditis elegans ASH neuronal cell Huntington disease model assessed as cell viability; assay type: cell-based
Brain = assay: Inhibition of medium spiny neuron degeneration in rat brain slice Huntington disease (HD) model after 4 days; assay type: functional, tissue-based
ST14A [4] = assay: Inhibition of cell death in rat ST14A cells assessed as cell viability; assay type: functional, cell-based
PC-12 = assay: Inhibition of human huntingtin Q103 mutant expressed in rat PC12 cells assessed as decrease in cell death relative to control; assay type: cell-based; parameters: concentration or dose not given beside the values
ST14A [5] = assay: Inhibition of apoptosis in rat ST14A cells transfected with human htt gene assessed as inhibition of caspase 3 cleavage by Western blot method; assay type: functional, cell-based
ST14A [6] = assay: Inhibition of apoptosis in rat ST14A cells transfected with human htt gene assessed as inhibition of caspase 7 cleavage by Western blot method; assay type: functional, cell-based
ST14A [7] = assay: Inhibition of rat ST14A cell death expressing human huntingtin N548 mutant assessed as inhibition of cell death at 50 uM after 6 hrs by fluorimetry; assay type: functional, cell-based
ST14A [8] = assay: Inhibition of rat ST14A cell death assessed as inhibition of cell death at 50 uM after 6 hrs by fluorimetry; assay type: functional, cell-based

Row | SMILES | EC50 [1] [µM] | CC50 [2] [µM] | EC50 ([3]; pc-12) | inhibition (Saccharomyces cerevisiae) | inhibition (neuronal) | inhibition (Brain) | inhibition (ST14A [4]) | EC50 ([3]; PC-12, read-out: EC50) [µM] | inhibition (PC-12) [%] | INH (neuronal) [mM] | inhibition (ST14A [5]) | inhibition (ST14A [6]) | inhibition (ST14A [7]) | inhibition (ST14A [8])
1 | CCCc1cc(OC(=O)C(CC)c2ccccc2)n(-c2cccc(F)c2)n1 (stereo not drawn) | 11 | 218 | Not Active | inactive | inactive | Active |  |  |  |  |  |  |  | 
2 | CCOC(=O)c1cccc(NS(=O)(=O)c2ccc(OC)cc2)c1 | 15 | 119 | Not Active | inactive | inactive |  |  |  |  |  |  |  |  | 
3 | CCCc1cc(OC(=O)c2ccccc2F)n(-c2cccc(F)c2)n1 | 12 | 235 |  | inactive |  | Active | inactive | 145 | 21 | 3 | Active | inactive |  | 
4 | COC(=O)C[C@H](NC(=O)OC(C)(C)C)C(=O)CF |  |  |  |  |  |  |  |  |  |  |  |  | Dose-dependent effect | Dose-dependent effect
5 | O=C(Cc1cccs1)/C(=N/NC(=O)c1cccc(Br)c1)C(F)(F)F | 5 | 48 | Not Active | inactive | inactive |  | inactive |  |  |  |  |  |  | 
6 | COC1=CC2C(=O)C(=O)N3C2C(=C1)[C@H](C)CC3(C)C (stereo partly drawn) | 16 | 77 | Not Active | inactive | inactive |  |  |  |  |  |  |  |  | 
7 | Cc1nc2c(O)c(Br)ccn2c(=O)c1Br | 2 | 24 | Not Active | inactive | inactive |  |  |  |  |  |  |  |  | 
8 | CCCCCCCCCC(=O)Oc1cc(-c2ccccc2)nn1-c1cccc(C)c1 | 10 | 75 |  | inactive | inactive | inactive |  | 100 | 23 |  |  |  |  | 
9 | COc1ccc(CN(CCC2(c3ccccc3)CCOC(C)(C)C2)C(=O)c2ccco2)cc1OC (stereo not drawn) | 5 | 50 | Not Active | inactive | inactive |  |  |  |  |  |  |  |  | 
10 | O=c1[nH]c2c(c(=O)[nH]1)C(c1cccc([N+](=O)[O-])c1)C=C(c1ccccc1)O2 (stereo not drawn) | 3 | 110 | Not Active | inactive | inactive |  |  |  |  |  |  |  |  | 
11 | CC(C)C1=CCC2C(=C1)CCC1[C@@]2(C)CCC[C@]1(C)C(=O)O (stereo partly drawn) | 7 | 53 | Not Active | inactive | inactive |  |  |  |  |  |  |  |  | 
12 | Cc1ccc(-c2nc(NS(=O)(=O)c3ccc(Cl)cc3)sc2C)cc1 | 11 | 42 | Not Active | inactive | inactive |  |  |  |  |  |  |  |  | 
13 | NNc1nnc(-c2ccccc2)c2ccccc12 | 5 | 102 |  | inactive | inactive |  |  | 8 | 18 |  |  |  |  | 
14 | CCC1CN2CCc3cc(OC)c(OC)cc3C2CC1CC1c2cc(OC)c(OC)cc2CCN1C(=O)c1ccco1 (stereo not drawn) | 6 | 42 | Not Active | inactive | inactive |  |  |  |  |  |  |  |  | 
15 | CCCN1C(=O)C(=O)c2cc(C)ccc21 | 5 | 98 | Not Active | inactive | inactive |  |  |  |  |  |  |  |  | 
16 | CC1(C)C(C=C(Cl)Cl)C1C(=O)C1=C(O)CCCC1=O (stereo not drawn) | 10 | 79 | Not Active | inactive | inactive |  |  |  |  |  |  |  |  | 
17 | CCCCc1ccc(C(=O)N(CCC(=O)N2CCC(Cc3ccccc3)CC2)Cc2ccco2)cc1 | 5 | 41 |  | inactive | inactive |  |  | 60 | 27 |  |  |  |  | 
18 | CC1=NN(C(N)=S)C(=O)/C1=N/Nc1ccccc1C(F)(F)F | 7 | 49 | Not Active | inactive | inactive |  |  |  |  |  |  |  |  | 
19 | CCCCCCN(C(=O)CCCC)C(C)c1nc2ccccc2c(=O)n1-c1ccccc1OC (stereo not drawn) | 9 | 26 | Not Active | inactive | inactive |  |  |  |  |  |  |  |  | 
20 | CCCCCCCCC(=O)N(Cc1ccco1)C(C)c1nc2ccccc2c(=O)n1-c1cc(C)ccc1C (stereo not drawn) | 2 | 39 |  | inactive | inactive |  |  | 50 | 25 |  |  |  |  | 
21 | CCCc1ccc(CC2=C(O)C(=O)c3ccccc3C2=O)cc1 | 7 | 65 | Not Active | inactive | inactive |  |  |  |  |  |  |  |  | 
22 | CC(=O)N(C1=C(N(C)C)C(=O)c2ccccc2C1=O)c1ccc(Br)cc1 | 5 | 29 | Not Active | inactive | inactive |  |  |  |  |  |  |  |  | 
23 | Oc1ccc2c(c1)CC1NCCc3cc(O)c(O)c-2c31 (stereo not drawn) | 15 | 74 | Not Active | inactive | inactive |  |  |  |  |  |  |  |  | 
24 | CC(C)CC(NC(=O)OCc1ccccc1)C(=O)Oc1ccc2c(=O)c(-c3ccc([N+](=O)[O-])cc3)coc2c1 (stereo not drawn) | 8 | 38 | Not Active | inactive | inactive |  |  |  |  |  |  |  |  | 
25 | COc1ccccc1C(CCN(C(C)=O)C(C)c1ccccc1)C1CCC(C)(C)OC1 (stereo not drawn) | 5 | 47 | Not Active | inactive | inactive |  |  |  |  |  |  |  |  | 
26 | CC1CN(C(C)c2nc3ccccc3c(=O)n2-c2ccc(F)cc2)CCC1C(=O)C1CC1 (stereo not drawn) | 5 | 37 | Not Active | inactive | inactive |  |  |  |  |  |  |  |  | 
27 | CC1=NC(Nc2nc(C)c3cc(C)c(C)cc3n2)=NC(C)(C)C1 | 7 | 32 | Not Active | inactive | inactive |  |  |  |  |  |  |  |  | 
28 | COc1ccc(C(CCN(CC2CCOC(C)(C)C2)C(C)=O)c2ccccc2)cc1 (stereo not drawn) | 10 | 49 | Not Active | inactive | inactive |  |  |  |  |  |  |  |  | 
29 | COc1cc2c(cc1OC)C(C)N(C(=O)NCc1ccccc1)CC2 (stereo not drawn) | 3 | 47 | Not Active | inactive | inactive |  |  |  |  |  |  |  |  | 
30 | COc1c2c(cc3c1C(CC(=O)/C=C/c1ccco1)[N+](C)(C)CC3)OCO2 (stereo not drawn) | 9 | 80 |  | inactive |  | inactive |  | 22 | 34 | 2.2 | Active | inactive |  | 
